Results from patent US12310975B2, “Modulators of BCL6 proteolysis and associated methods of use” (Arvinas Operations, Inc., priority 2019, dated 2025).

Molecular target: BCL6 (Homo sapiens (Human), UniProt P41182)
Experiment: Immunofluorescence high content imaging of BCL6 degradation in T47D cells
Format: cell-based
Conditions: T47D cells
In short: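 T47D, 3 d compound exposure, 11-pt 3-fold series, top 0.1 or 1 μM final. Fix 4% PFA, Triton permeabilize, anti-BCL6 primary overnight 4 °C, Alexa-488 secondary. High-content imaging 10×, 4 fields/well, top-hat smoothing.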

Row | SMILES | Dmax | IC50
1 | CNC(=O)COc1cc2cc(Nc3nc(N4CCC(CN5CCC6(CC5)CN(c5cccc(C(=O)NC7CCC(=O)NC7=O)c5F)C6)CC4)ncc3Cl)ccc2n(C(C)C)c1=O (stereo not shown) [compound 419, 3-[7-({1-[5-chloro-4-({3-[(methylcarbamoyl)methoxy]-2-oxo-1-(propan-2-yl)-1,2-dihydroquinolin-6-yl}amino)pyrimidin-2-yl]piperidin-4-yl}methyl)-2,7-diazaspiro[3.5]nonan-2-yl]-N-(2,6-dioxopiperidin-3-yl)-2-fluorobenzamide] | ≥ 70% | –
2 | CNC(=O)COc1cc2cc(Nc3nc(N4CCC(CN5CCC6(CC5)CN(c5cccc(C(=O)NC7CCC(=O)NC7=O)c5OC)C6)CC4)ncc3Cl)ccc2n(C(C)C)c1=O (stereo not shown) [compound 420, 3-[7-({1-[5-chloro-4-({3-[(methylcarbamoyl)methoxy]-2-oxo-1-(propan-2-yl)-1,2-dihydroquinolin-6-yl}amino)pyrimidin-2-yl]piperidin-4-yl}methyl)-2,7-diazaspiro[3.5]nonan-2-yl]-N-(2,6-dioxopiperidin-3-yl)-2-methoxybenzamide] | < 50% | 50 to 100 nM
3 | CNC(=O)COc1cc2cc(Nc3nc(N4CCC(OC5CCC6(CC5)CN(c5ccc7c(c5)C(=O)N(C5CCC(=O)NC5=O)C7=O)C6)CC4)ncc3Cl)ccc2n(C(C)C)c1=O (stereo not shown) [compound 421, 2-{[6-({5-chloro-2-[4-({2-[2-(2,6-dioxopiperidin-3-yl)-1,3-dioxo-2,3-dihydro-1H-isoindol-5-yl]-2-azaspiro[3.5]nonan-7-yl}oxy)piperidin-1-yl]pyrimidin-4-yl}amino)-2-oxo-1-(propan-2-yl)-1,2-dihydroquinolin-3-yl]oxy}-N-methylacetamide] | ≥ 70% | < 10 nM
4 | CNC(=O)COc1cc2cc(Nc3nc(N4CC5(CCN(CC6CCN(c7ccc8c(c7)C(=O)N(C7CCC(=O)NC7=O)C8=O)CC6)CC5)C4)ncc3Cl)ccc2n(C(C)C)c1=O (stereo not shown) [compound 422, 2-{[6-({5-chloro-2-[7-({1-[2-(2,6-dioxopiperidin-3-yl)-1,3-dioxo-2,3-dihydro-1H-isoindol-5-yl]piperidin-4-yl}methyl)-2,7-diazaspiro[3.5]nonan-2-yl]pyrimidin-4-yl}amino)-2-oxo-1-(propan-2-yl)-1,2-dihydroquinolin-3-yl]oxy}-N-methylacetamide] | 50 to 70% | < 10 nM
5 | CNC(=O)COc1cc2cc(Nc3nc(N4CCN(CC5CCN(c6cccc7c6CN(C6CCC(=O)NC6=O)C7=O)CC5)CC4)ncc3Cl)ccc2n(C(C)C)c1=O (stereo not shown) [compound 423, 2-{[6-({5-chloro-2-[4-({1-[2-(2,6-dioxopiperidin-3-yl)-1-oxo-2,3-dihydro-1H-isoindol-4-yl]piperidin-4-yl}methyl)piperazin-1-yl]pyrimidin-4-yl}amino)-2-oxo-1-(propan-2-yl)-1,2-dihydroquinolin-3-yl]oxy}-N-methylacetamide] | ≥ 70% | < 10 nM
6 | CNC(=O)COc1cc2cc(Nc3nc(N4CCC(OC5CC6(C5)CN(c5cccc7c5CN(C5CCC(=O)NC5=O)C7=O)C6)CC4)ncc3Cl)ccc2n(C(C)C)c1=O (stereo not shown) [compound 424, 2-{[6-({5-chloro-2-[4-({2-[2-(2,6-dioxopiperidin-3-yl)-1-oxo-2,3-dihydro-1H-isoindol-4-yl]-2-azaspiro[3.3]heptan-6-yl}oxy)piperidin-1-yl]pyrimidin-4-yl}amino)-2-oxo-1-(propan-2-yl)-1,2-dihydroquinolin-3-yl]oxy}-N-methylacetamide] | ≥ 70% | 10 to 50 nM
7 | CNC(=O)COc1cc2cc(Nc3nc(N4CCC(CN5CCC6(CC5)CN(c5ccc(C(=O)NC7CCC(=O)NC7=O)c(OC)c5)C6)CC4)ncc3Cl)ccc2n(C(C)C)c1=O (stereo not shown) [compound 425, 4-[7-({1-[5-chloro-4-({3-[(methylcarbamoyl)methoxy]-2-oxo-1-(propan-2-yl)-1,2-dihydroquinolin-6-yl}amino)pyrimidin-2-yl]piperidin-4-yl}methyl)-2,7-diazaspiro[3.5]nonan-2-yl]-N-(2,6-dioxopiperidin-3-yl)-2-methoxybenzamide] | 50 to 70% | < 10 nM
